# Test results: patent US7645802B2 (Biovail Laboratories International SRL., priority 2005, dated 2010)
# Where a name gives a salt, the structure may show the parent alone.
# Tests used:
# [1] = Solubility and other physical properties, Bupropion HBr vs Bupropion HCl; details: HCl from Erregierre, HBr from Chemi; hydrobromide
# CD-1 mice = assay: clonic convulsions in CD-1 mice after intraperitoneal dosing (range finding and main study)
# Description: Two studies were performed to investigate the relative proconvulsant properties of the two bupropion salts. In the first instance a range finding study was performed to establish the appropriate dose range for the main study. In each study the mice were divided into two dose groups and injected intraperitoneally with either bupropion HCl or bupropion HBr.
# A clonic convulsion was defined as a stiffening of the animal followed by jerking movements. The convulsions were classified as mild, moderate and severe according to the following descriptions.
# Mild: Head and tail slightly extended and little jerking
# Moderate: Head and tail fully extended with some jerking
# Severe: Head and tail fully extended with strong jerking
# Post-treatment findings recorded included continuous observation for 120 minutes for evidence of clonic convulsions, and intermittent (fixed) observations for 24 hours for other signs, including tonic convulsions, movement, activity, paralysis, gait and evidence of recovery.
# mice = assay: Proconvulsant properties of bupropion salts: clonic convulsions in mice; details: for Mean Number of Convulsions/Mouse / Total Number of convulsions: N=13
# Description: Number of convulsions and the intensity of the convulsions were recorded.
# Mild: Head and tail slightly extended and little jerking; Moderate: Head and tail fully extended with some jerking; Severe: Head and tail fully extended with strong jerking. […] Step 2: To further investigate the patterns of convulsion occurrence using loglinear Poisson regression models. The number of convulsions was analyzed using the loglinear Poisson regression models with formulation, dose, and severity as predictors.
# [2] = Closed vial / closed glass bottle stability (40° C./75% RH) of bupropion salt APIs; type: physicochemical
# [3] = Dynamic Vapour Sorption (DVS) analysis
# [4] = forced degradation of bupropion HBr and HCl in the presence of excipients at 55° C., 55° C./100% RH, 100° C., 105° C. (incl. TGA at 100° C.); type: physicochemical; details: in the presence of excipients, 55° C., 55° C./100% RH, 100° C., 105° C.
# Description: Further forced degradation studies were carried out at 55° C., at 55° C. and 100% relative humidity, at 100° C., and at 105° C. on both the HCl and HBr Bupropion salts in the presence of excipients. […] FIG. 53 is a graph showing the loss of each salt over time in a TGA experiment at 100° C.
# [5] = 100 mg/kg i.p., pooled data N = 13/dose group, hydrobromide
# [6] = 150 mg/kg i.p., pooled data N = 13/dose group, hydrobromide
# [7] = 150 mg/kg, Moderate, hydrobromide
# [8] = 150 mg/kg, Severe, hydrobromide
# [9] = 10-Days, closed glass bottle 40 C./75% RH, HBr Lot# STN07491, HCl Lot# STN06973, hydrobromide
# [10] = 10 Days, closed glass bottle 40 C./75% RH, HBr Lot# STN07492, HCl Lot# STN06978, hydrobromide
# [11] = 14-Days, closed glass bottle 40° C./75% RH, HBr Lot# STN07492, HCl L# STN06973, hydrobromide
# [12] = 24 Days, closed glass bottle 40° C./75% RH, HBr Lot# STN07492, HCl L# STN06973, hydrobromide
# [13] = Initial, closed glass bottle 40 C./75% RH, HBr Lot# STN07491, HCl Lot# STN06973, hydrobromide
# [14] = Initial, closed glass bottle 40 C./75% RH, HBr Lot# STN07492, HCl Lot# STN06978, hydrobromide
# [15] = Initial, closed glass bottle 40° C./75% RH, HBr Lot# STN07492, HCl L# STN06973, hydrobromide
structure (smiles),measurement,setting,value
"CC(NC(C)(C)C)C(=O)c1cccc(Cl)c1 (stereo not drawn) [Bupropion HBr, bupropion hydrobromide]",PS (Malvern) 10%,[1],10% 72 μm
same,PS (Malvern) 50%,[1],50% 245 μm
same,PS (Malvern) 90%,[1],90% 657 μm
same,moisture content KF,[1],0.00%
same,pH (aq. 0.5%),[1],5.92
same,Mean Intensity of Convulsions/Mouse % of Total: Mild,CD-1 mice; [5],90.0 % of Total
same,Mean Intensity of Convulsions/Mouse % of Total: Moderate,CD-1 mice; [5],10.0 % of Total
same,Mean Intensity of Convulsions/Mouse % of Total: Severe,CD-1 mice; [5],0.0 % of Total
same,Mean Number of Convulsions/Mouse,CD-1 mice; [5],0.8
same,numbers of mice that had convulsions in the dose group,CD-1 mice; [5],3/13
same,Mean Number of Convulsions/Mouse,"CD-1 mice; 100 mg/kg i.p., range-finding study, N = 3/dose group, hydrobromide",0
same,numbers of mice that had convulsions in the dose group,"CD-1 mice; 100 mg/kg i.p., second (main) study, N = 10/dose group",3/10
same,Mean Number of Convulsions/Mouse,"CD-1 mice; 100 mg/kg i.p., second (main) study, N = 10/dose group, hydrobromide",1.0
same,Mean Intensity of Convulsions/Mouse % of Total: Mild,CD-1 mice; [6],21.3 % of Total
same,Mean Intensity of Convulsions/Mouse % of Total: Moderate,CD-1 mice; [6],25.7 % of Total
same,Mean Intensity of Convulsions/Mouse % of Total: Severe,CD-1 mice; [6],53.0 % of Total
same,Mean Number of Convulsions/Mouse,CD-1 mice; [6],46.6
same,Mean Number of Convulsions/Mouse,"CD-1 mice; 150 mg/kg i.p., range-finding study, N = 3/dose group, hydrobromide",11.0
same,Mean Number of Convulsions/Mouse,"CD-1 mice; 150 mg/kg i.p., second (main) study, N = 10/dose group, hydrobromide",57.3
same,numbers of mice that had convulsions in the dose group,"CD-1 mice; […] i.p., pooled data N = 13/dose group, hydrobromide",11/13
same,numbers of mice that had convulsions in the dose group,"CD-1 mice; […] i.p., second (main) study, N = 10/dose group, hydrobromide",8/10
same,recovery from other treatment-related signs,CD-1 mice; range finding study,tendency to recover more quickly
same,threshold for tonic convulsions,"CD-1 mice; range finding study, i.p., hydrobromide",125 mg/kg
same,solubility,"physchem; organic solvent or mixture, EtOH",92 mg/mL
same,solubility,"physchem; organic solvent or mixture, IPA",12 mg/mL
same,solubility,physchem; water,143 mg/mL
same,"Mean Number of Convulsions/Mouse, cumulative","mice; 100 mg/kg, All, hydrobromide",0.77
same,Mean Number of Convulsions/Mouse,"mice; 100 mg/kg, Mild, hydrobromide",0.69
same,Total Number of convulsions,"mice; 100 mg/kg, Mild, hydrobromide",9
same,Mean Number of Convulsions/Mouse,"mice; 100 mg/kg, Moderate",0.08
same,"Mean Number of Convulsions/Mouse, cumulative","mice; 100 mg/kg, Severe + Moderate, hydrobromide",0.08
same,Mean Number of Convulsions/Mouse,"mice; 100 mg/kg, Severe, 120 min observation, hydrobromide",0.0
same,Total Number of convulsions,"mice; 100 mg/kg, Severe, hydrobromide",0
same,"Mean Number of Convulsions/Mouse, cumulative","mice; 150 mg/kg, All, hydrobromide",46.61
same,Mean Number of Convulsions/Mouse,"mice; 150 mg/kg, Mild, hydrobromide",9.92
same,Total Number of convulsions,"mice; 150 mg/kg, Mild, hydrobromide",129
same,Mean Number of Convulsions/Mouse,mice; [7],12.00
same,Total Number of convulsions,mice; [7],156
same,"Mean Number of Convulsions/Mouse, cumulative","mice; 150 mg/kg, Severe + Moderate, hydrobromide",36.69
same,Mean Number of Convulsions/Mouse,mice; [8],24.69
same,Total Number of convulsions,mice; [8],321
same,% Assay,[2]; [9],98.2%
same,% Impurities 3-CBZ,[2]; [9],0.070%
same,% Impurities 20U78/dilu,[2]; [9],0.051%
same,% Impurities 827U76,[2]; [9],0.039%
same,% Impurities 852U77,[2]; [9],0.125%
same,% Impurities Total (%),[2]; [9],0.42%
same,% Impurities Total unknown,[2]; [9],0.129%
same,% Assay,[2]; [10],99.2%
same,% Impurities 3-CBZ,[2]; [10],0.031%
same,% Impurities 20U78/dilu,[2]; [10],0.044%
same,% Impurities 852U77,[2]; [10],0.055%
same,% Impurities Total (%),[2]; [10],0.24%
same,% Impurities Total unknown,[2]; [10],0.15%
same,% Impurities 827U76,"[2]; 14-Days, closed glass bottle 40° C./75% RH, HBr Lot# STN07492, HCl L# STN06973",0.012%
same,% Assay,[2]; [11],98.8%
same,% Impurities 3-CBZ,[2]; [11],0.015%
same,% Impurities 20U78/dilu,[2]; [11],0.048%
same,% Impurities 852U77,[2]; [11],0.058%
same,% Impurities Total (%),[2]; [11],0.23%
same,% Impurities Total unknown,[2]; [11],0.105%
same,% Assay,[2]; [12],99.5%
same,% Impurities 3-CBZ,[2]; [12],0.022%
same,% Impurities 20U78/dilu,[2]; [12],0.038%
same,% Impurities 827U76,[2]; [12],0.016%
same,% Impurities 852U77,[2]; [12],0.052%
same,% Impurities Total (%),[2]; [12],0.23%
same,% Impurities Total unknown,[2]; [12],0.104%
same,% Assay,[2]; [13],99.5%
same,% Impurities 3-CBZ,[2]; [13],0.011%
same,% Impurities 20U78/dilu,[2]; [13],0.041%
same,% Impurities Total (%),[2]; [13],0.17%
same,% Impurities Total unknown,[2]; [13],0.129%
same,% Assay,[2]; [14],99.6%
same,% Impurities 3-CBZ,[2]; [14],0.007%
same,% Impurities 20U78/dilu,[2]; [14],0.041%
same,% Impurities Total (%),[2]; [14],0.23%
same,% Impurities Total unknown,[2]; [14],0.194%
same,% Assay,[2]; [15],99.6%
same,% Impurities 3-CBZ,[2]; [15],0.007%
same,% Impurities 20U78/dilu,[2]; [15],0.044%
same,% Impurities 852U77,[2]; [15],0.009%
same,% Impurities Total (%),[2]; [15],0.16%
same,% Impurities Total unknown,[2]; [15],0.098%
same,"hygroscopicity (DVS, words)",[3]; 0% RH-90% RH,non-hygroscopic
same,maximum water uptake (DVS),[3]; at 90% RH,0.14 % weight
same,stability / degradation compared to bupropion HCl,[4],significant improvements in stability compared to bupropion HCl
